Values after ≈ are worked out from the molar mass of the structure shown.

These results are taken from patent EP0695746A2, “Antiviral compounds and pharmaceutical compositions” (PHARMA MAR, S.A., priority 1994, dated 1996).

The subject of data set [1] is CD-1 mice. Kind of data set: In vivo toxicity test, single injection. As to the method:
The LD₅₀ for the compound was > 150 mg/kg.

Data set [2] has as its system HIV-1 p24 core antigen. Kind of data set: p24 ELISA on supernatant of the cytotoxic assay wells. In kind it is cell-based. The method, then: Secondary assays for evaluating antiviral activity included the syncytial-forming assay and p24 ELISA's. The first assay was described above. The p24 assay was performed by purchasing the p24 kit for the human immunodeficiency virus for p24 antigen assays from the Coulter Corporation, Hialeah, FL. […] The preparation of a mouse monoclonal antibody with high specificity and affinity for the viral p24 protein has allowed the development of an extremely sensitive ELISA for HIV-1 p24 core antigen.
An assay for antiviral activity to HIV-1 was started on 10-28-93 using the cytotoxic assay as described above and HIV-1 activity was observed microscopically in this sample on day 4 of the cytotoxic assay. On day six, 10 µl of supernatant fluid were removed from the cytotoxic wells and assayed for p24. The results of the cytotoxic assay, p24 assay, and syncytia assay were: […]

Data set [3] concerns HIV-1 RF. Kind of data set: XTT cytoprotection assay (called Cytotoxic Assay in the tables), antiviral activity. In kind it is cell-based. (In general: Formazan colour is commonly taken as a measure of viable cells.)
Protocol: Changes were made to accommodate changes in solvent systems and drug test dilutions.
For the cytoprotection assay CEM-SS cells and HIV-1 RF strain of virus were used. Test samples were first diluted in an appropriate solvent, and 10 to 50 µl were transferred to the test plate. If the solvent was methanol or a similar solvent, the plates were allowed to evaporate. If medium was used for dilutions the plates were covered and the volume of test sample was taken into consideration when adding cells and virus. At each test concentration 50 µl of sample were added to three wells, one for toxicity tests, one for color control, and one for antiviral activity. Assuming the solvent was evaporated, 150 µl cells are added to all wells, except the control wells for medium only, so that the cell concentration per well was 5000. Then 50 µl of HIV-1 virus was added to each test well so that the M.O.I. was approximately 0.31. For toxicity tests 50 µl of medium were added to the control well. The plates were incubated in 5% CO₂ for 6 days at 37°C. After incubation, the XTT solution was added to the plates, and after 4 hours incubation at 37°C the plates are covered with clear plastic sealers. Cell viability was measured by the visible light absorbance at 450 nm and a reference wavelength of 650 nm. Data were expressed as a percentage of formazan produced in drug test wells compared to formazan produced in wells of untreated control cells.
Cells were maintained in the logarithmic growth state by subdividing cultures when the cell concentrations reach an upper limit of 1 x 10⁶ cells per ml.
For antiviral assays CEM-SS cells at a cell concentration of 5.0 x 10⁵ in serum free medium were treated with polybrene at a concentration of 1 µg/ml and incubated for 30 to 60 minutes at 37°C. Polybrene medium was removed by centrifugation, and CEM-SS cells were resuspended in growth medium. If solvents were evaporated the cell concentration was 33,500 cells per ml so that 150 µl contained 5000 cells. If medium was the dilution vehicle then the cell concentration was 50,000 so that 100 µl contained 5000 cells. The total test volume for medium, cells, and virus was 200 µl.
Store frozen at -20°C (0.1 to 0.2 ml per vial). Warm to 37°C as needed. […] PMS dilution for XTT medium: Dilute PMS stock from freezer 1:100 in PBS. Add 4% to medium. […] Formula for XTT/PMS solution for 1 plate (5 ml per plate)
Dissolve XTT in medium, add PMS/PBS. Warm to 37°C for approximately 10 to 15 minutes to obtain an homogeneous solution. Add 50 µl per plate Incubate for 4 hours. Read A(450-650) nm. […] The data was processed to convert optical density readings to a percentage of inhibition compared to CEM-SS cells that have not been infected with HIV-1 virus. C = cells D = Drug or Sample M = Medium V = Virus
% toxicity = 100 - [(((M + D + C) - M) ÷ ((M + C) - M)) * 100] [formula] % antiviral = ((M + D + C + V)-V-M)) ÷ ((M + D + C)-(V-M))) * 100 [formula]
Data set [4] concerns CEM-SS cells. Put plainly: XTT cytoprotection assay (Cytotoxic Assay), toxicity wells without virus. In kind it is cell-based, human. To be noted: Table VI, assay date. As to the method: This assay is a measure of the viability of human T cell lines after infection with HIV in the presence of potential antiviral compounds. The results are assessed spectrophometrically by reading optical densities after the addition of XTT to determine if the viable cells reduced the pale yellow tetrazolium reagent (XTT) to an orange formazan product. This assay can be utilized for the initial screen of large numbers of samples. For the cytoprotection assay CEM-SS cells and HIV-1 RF strain of virus were used. Test samples were first diluted in an appropriate solvent, and 10 to 50 μl were transferred to the test plate. If the solvent was methanol or a similar solvent, the plates were allowed to evaporate. If medium was used for dilutions the plates were covered and the volume of test sample was taken into consideration when adding cells and virus. At each test concentration 50 μl of sample were added to three wells, one for toxicity tests, one for color control, and one for antiviral activity. Assuming the solvent was evaporated, 150 μl cells are added to all wells, except the control wells for medium only, so that the cell concentration per well was 5000. Then 50 μl of HIV-1 virus was added to each test well so that the M.O.I. was approximately 0.31. For toxicity tests 50 μl of medium were added to the control well. The plates were incubated in 5% CO2 for 6 days at 37°C. After incubation, the XTT solution was added to the plates, and after 4 hours incubation at 37°C the plates are covered with clear plastic sealers. Cell viability was measured by the visible light absorbance at 450 nm and a reference wavelength of 650 nm. Data were expressed as a percentage of formazan produced in drug test wells compared to formazan produced in wells of untreated control cells. CEM-SS cells were maintained with growth medium RPMI 1640, 10% fetal bovine serum, 2% L-glutamine (200 mM), and 50 μg/ml gentamicin in a 5% CO2 water-saturated atmosphere. Cells were maintained in the logarithmic growth state by subdividing cultures when the cell concentrations reach an upper limit of 1 x 10^6 cells per ml. […] Polybrene medium was removed by centrifugation, and CEM-SS cells were resuspended in growth medium. If solvents were evaporated the cell concentration was 33,500 cells per ml so that 150 μl contained 5000 cells. If medium was the dilution vehicle then the cell concentration was 50,000 so that 100 μl contained 5000 cells. The total test volume for medium, cells, and virus was 200 μl. Dissolve XTT in medium, add PMS/PBS. Warm to 37°C for approximately 10 to 15 minutes to obtain an homogeneous solution. Add 50 μl per plate Incubate for 4 hours. Read A(450-650) nm. B.2.5. Data processing After the plates were read spectrophotometrically the data was transferred via modem from the laboratory to the office. The data was processed to convert optical density readings to a percentage of inhibition compared to CEM-SS cells that have not been infected with HIV-1 virus. C = cells D = Drug or Sample M = Medium V = Virus M = medium only in well V = medium + CEM-SS cells + virus in well (M + C) = medium + CEM-SS cells (M + D) = medium + drug in well (M + D + C) = medium + drug + CEM-SS cell in well (M+D+C+V) = medium + drug + CEM-SS cells + virus in well.

Data set [5] deals with HIV-1. Kind of data set: HIV-1 antiviral in vitro assays. In kind it is cell-based.
Data set [6] relates to HIV-1 RF. Put plainly: Syncytium-forming assay (Syncytia assay), antiviral activity. In kind it is cell-based. From the text: To determine the HIV-1 viral titers the quantitative infectivity syncytium-forming assay described by P.L. Nara and P.J. Fischinger, "Quantitative Infectivity Assay for HIV-1 and -2," Nature, 332: 469 (1988)) was used. In this assay a single infectious unit of virus infects a single cell and initiates a focal cell change such as syncytium formation. Because a single infectious unit causes a single response, a linear relationship exists between the number of cytopathic effects caused by viral infection and the first order of virus concentration. This quantitative assay can be used to determine the titers of the HIV-1 in viral stocks, neutralization tests, and antiviral assays.
The quantitative infectivity syncytium-forming assay is applied for the direct quantitation of fusigenic virus-infected cells. CEM-SS cells were used for the syncytium-forming assay. CEM-SS cell are human T4-lymphoblastoid cells of a cell line initially derived by G.E. Foley, et al., "Continuous Culture to Human Lymphoblasts from Peripheral Blood of a Child with Acute Leukemia," Cancer, 18: 522 (1965) and biologically cloned by Nara et al., supra. The cells for this assay were provided by Dr. Nara.
CEM-SS cells were maintained in a growth medium of RPMI 1640, 10% fetal bovine serum, 1% L-glutamine (200 mM) and 50 µg/ml of gentamicin. CEM-SS cells grow in suspension. The cells have been cloned for both poly-L-lysine-induced adherence to microtiter plates and virus-induced syncytial and fusogenic sensitivity following infection with either cell-free or cell-associated HIV-1 and HIV-2. It has been determined that the cells are negative for virus including human retroviruses as determined by electron microscopy and reverse transcriptase analysis.
A.4.1. Use 96-wells flat bottom tissue culture plates and score the bottoms of all wells into 4 quadrants. A.4.2. Add 50 µl/well of diluted poly-L-lysine. Prepare stock poly-L-lysine (Poly-L-lysine hydrobromide, Sigma catalog, cat. # P-1399) at 5 mg/ml and store at -20°C for future use. For the assay dilute the stock poly-L-lysine 1:100 using phosphate buffered saline (PBS). A.4.3. Incubate plates at room temperature for no less than 30 minutes. A.4.4. Remove poly-L-lysine from wells. A.4.5. Wash the plates with 100 µl/well of Dulbecco's PBS and remove the excess PBS. A.4.6. Dilute CEM-SS cells in a logarithmic state of growth to 0.5 x 10⁶ cells per ml in a serum free medium and add 1 µg/ml polybrene. Incubate the cell suspension at 37°C for 60 minutes. Centrifuge at 800 rpm for 10 minutes and decant the supernatant fluid. A.4.7. Dilute the treated CEM-SS cell suspension to 5.0 x 10⁵ cells. Add 100 µl to the test wells so that the final cell concentration is 50,000 cells per well. Make ten-fold dilutions of the viral stock. Add 50 µl to the test wells. Add 50 µl growth medium to bring the total test volume to 200 µl. On day 3 place a clear plastic film (plate sealers, Dynatech Laboratories, Inc., cat # 001-010-3501) over the microtiter wells and evaluate for syncytium forming units (SFU).
The assay described above for determining viral titers of HIV-1 stock virus can be modified and used to evaluate the antiviral activity of compounds. A.5.1. Plates are treated with poly-L-lysine the same as above, and CEM-SS cells are polybrene treated. A.5.2. Dilute test compound in medium to desired concentrations. A.5.3. Add 100 µl CEM-SS cells to each well so that the final cell concentration is 50,000 cells per well. A.5.4. Add 50 µl of the test compound at each respective concentration to at least two wells, or four for one replicate assay. A.5.5. Add 50 µl growth medium to drug control wells. A.5.6. Add 50 µl HIV-1 virus to test wells at a concentration that provides approximately 100 SFU of virus per well. A.5.7. Run appropriate cell and viral controls. A.5.8. Incubate plates for 3 to 5 days. A.5.9. On day 3 to 5 cover plates with clear plastic sealers and count syncytial-forming units in the test wells and viral control wells.

Data set [7] has as its system CEM-SS cells. Put plainly: Syncytium-forming assay (Syncytia assay), toxicity in drug control wells. The settings on record: Homo sapiens. The data set is classed as cell-based. As to the method: The assay described above for determining viral titers of HIV-1 stock virus can be modified and used to evaluate the antiviral activity of compounds. A.5.1. Plates are treated with poly-L-lysine the same as above, and CEM-SS cells are polybrene treated. A.5.2. Dilute test compound in medium to desired concentrations. A.5.3. Add 100 µl CEM-SS cells to each well so that the final cell concentration is 50,000 cells per well. A.5.4. Add 50 µl of the test compound at each respective concentration to at least two wells, or four for one replicate assay. A.5.5. Add 50 µl growth medium to drug control wells. A.5.6. Add 50 µl HIV-1 virus to test wells at a concentration that provides approximately 100 SFU of virus per well. A.5.7. Run appropriate cell and viral controls. A.5.8. Incubate plates for 3 to 5 days. A.5.9. On day 3 to 5 cover plates with clear plastic sealers and count syncytial-forming units in the test wells and viral control wells. To determine if the test compounds have antiviral activity, compare the total number of SFU in the viral control to those enumerated in the test wells.

Where [8] appears, read: Human immunodeficiency virus 1, Table VI, Cytotoxic Assay, assay date, read-out: EC50 (converted).
Setting [9] is: Homo sapiens, CEM-SS, read-out: IC50 (converted).
[10] abbreviates: Human immunodeficiency virus 1, Table VI, Syncytia Assay, 06-29-94, read-out: EC50 (converted).
The mark [11] stands for this setting: Table VI, Syncytia Assay, 06-29-94.
[12] abbreviates: Table III, Syncytia Assay (M.O.I. = .005).

`CC1(C)CCC[C@@]2(C)[C@H](c3ccoc3)C(=O)[C@H]3O[C@@]312` (racemic) [PM-92131 (±)] gave an LD₅₀ in data set [1] of more than 150 mg/kg. For the same compound, the EC50 in data set [2] (Human immunodeficiency virus 1, Table I, P24 ELISA) was 0.5 µg/mL (≈ 1.92 µM); in data set [2] (Human immunodeficiency virus 1, Table III, p24 ELISA Assay), 0.35 µg/mL (≈ 1.34 µM).
Take `CC1(C)CCC[C@]2(C)[C@H](c3ccsc3)C(=O)[C@H]3O[C@@]312` (racemic) [PM-94116 & PM-94117 (1:1)]: the EC50 in data set [3] (setting [8]) is 2.15 µg/mL; in data set [6] (setting [10]), 1 µg/mL. Besides, the SI is recorded as 2 in data set [3] (Table VI, Cytotoxic Assay) and 11 in data set [6] (setting [11]). Also, the IC50 is 4.35 µg/mL (≈ 15.7 µM) in data set [4] (setting [9]) and 11 µg/mL (≈ 39.8 µM) in data set [7] (setting [11]). Besides, in data set [5], the “HIV-1 antiviral activity (in words)” value is “exhibit anti-HIV-1 activity”.
With `CC1(C)CCC[C@@]2(C)[C@H](c3ccccc3)C(=O)[C@H]3O[C@@]312` (racemic) [PM-94118(±)], the figures for the EC50 in data set [3] (setting [8]) and in data set [6] (setting [10]) were 3 µg/mL and 2 µg/mL, respectively. Besides, the IC50 in data set [4] (setting [9]) was 9 µg/mL (≈ 33.3 µM); in data set [4], 1.87 μg/200 μl; in data set [7] (setting [11]) it was 20 µg/mL (≈ 74 µM). In addition, the SI in data set [6] (setting [11]) turned out to be 10.
As to `CC1(C)CCC[C@@]2(C)[C@H](c3ccsc3)C(=O)[C@H]3O[C@@]312` (racemic) [SU-0096(±)], the IC50 in data set [4] (setting [9]) was 4.5 µg/mL (≈ 16.3 µM).
Regarding `Cc1cn([C@H]2C[C@H](N=[N+]=[N-])[C@@H](CO)O2)c(=O)[nH]c1=O` [AZT, 3'-azido-3'-deoxythymidine, reference compound], the EC50 in data set [3] (Human immunodeficiency virus 1, Table V, Cytoprotection Assay, MOI 0.037, read-out: EC₅₀) was 100 nM; in data set [3] (Human immunodeficiency virus 1, Table V, Cytoprotection Assay, MOI 0.074, read-out: EC₅₀), 460 nM; in data set [3] (Human immunodeficiency virus 1, Table V, Cytoprotection Assay, MOI 0.149, read-out: EC₅₀), 1300 nM; in data set [6] (Human immunodeficiency virus 1, Table IV, Syncytia Assay, MOI 0.002, read-out: EC₅₀), 10 nM; in data set [6] (Human immunodeficiency virus 1, Table IV, Syncytia Assay, MOI 0.004, read-out: EC₅₀) it was 10 nM; in data set [6] (Human immunodeficiency virus 1, Table IV, Syncytia Assay, MOI 0.008, read-out: EC₅₀), 10 nM. The EC50 in data set [6] (Human immunodeficiency virus 1, Table IV, Syncytia Assay, MOI 0.016, read-out: EC₅₀) came to 70 nM.
For the compound `CC1(C)CCC[C@]2(C)[C@@H](c3ccoc3)C(=O)[C@@H]3O[C@]312` [PM-92131 (-)], the “HIV-1 antiviral activity (in words)” value in data set [5] was “active against HIV-1”. Further, the EC50 in data set [6] (Human immunodeficiency virus 1, Table III, Syncytia Assay (M.O.I. = .005), read-out: EC50 (converted)) was 4 µg/mL. The same compound had an SI in data set [6] (setting [12]) of 10. In data set [7] (setting [12]), this compound had an IC50 of 40 µg/mL (≈ 154 µM).
Regarding `CC1(C)CCC[C@@]2(C)[C@@H](c3ccsc3)C(=O)[C@@H]3O[C@]312` [PM-94117], the IC50 in data set [4] (setting [9]) is 12.5 µg/mL (≈ 45.2 µM); in data set [7] (setting [11]) it was 15 µg/mL (≈ 54.3 µM). Further, the EC50 in data set [6] (setting [10]) was 1.2 µg/mL. Further, the SI in data set [6] (setting [11]) came to 13.
